Patent US6869949B2, “Polysubstituted imidazopyridines as gastric secretion inhibitors” (Altana Pharma AG, priority 2000, dated 2005)

Tested on: not given
Assay: not given
Conditions: not given

| Structure (SMILES) | melting point |
| --- | --- |
| Cc1nc2c3c(ccn2c1C)C(=O)C(O)C(c1ccsc1)N3 (centres unmarked) [Example 1, 8-Hydroxy-2,3-dimethyl-9-(3-thienyl)-7,8,9,10-tetrahydroimidazo[1,2-h][1,7]naphthyridin-7-one] | 222 to 225 °C |
| Cc1nc2c3c(ccn2c1C)C(O)C(O)C(c1ccsc1)N3 (centres unmarked) [Example 2, 7,8-Dihydroxy-2,3-dimethyl-9-(3-thienyl)-7,8,9,10-tetrahydroimidazo[1,2-h][1,7]naphthyridine] | 134 to 138 °C |
| Cc1nc2c3c(ccn2c1C)C(=O)CC(c1ccsc1)N3 (centres unmarked) [Example 3, 2,3-Dimethyl-9-(3-thienyl)-7,8,9,10-tetrahydroimidazo[1,2-h][1,7]naphthyridin-7-one] | 176 to 177 °C |
| Cc1nc2c3c(ccn2c1C)C(O)CC(c1ccsc1)N3 (centres unmarked) [Example 4, 7-Hydroxy-2,3-dimethyl-9-(3-thienyl)-7,8,9,10-tetrahydroimidazo[1,2-h][1,7]naphthyridine] | 192 to 194 °C |
| Cc1nc2c3c(ccn2c1C)C(O)CC(c1ccoc1)N3 (centres unmarked) [Example 7, 9-(3-Furyl)-7-hydroxy-2,3-dimethyl-7,8,9,10-tetrahydroimidazo[1,2-h][1,7]naphthyridine] | 221 to 222 °C |
| Cc1cn2ccc3c(c2n1)N[C@H](c1ccccc1)[C@@H](O)[C@@H]3O [Example 11, (7R,8R,9R)-7,8-Dihydroxy-2-methyl-9-phenyl-7,8,9,10-tetrahydroimidazo[1,2-h][1,7]naphthyridine] | 119 °C (dec.) |
| COCCO[C@@H]1c2ccn3c(Br)c(C)nc3c2N[C@H](c2ccccc2)[C@H]1O [Example 13, (7R,8R,9R)-3-Bromo-8-hydroxy-7-(2-methoxyethoxy)-2-methyl-9-phenyl-7,8,9,10-tetrahydroimidazo[1,2-h][1,7]naphthyridine] | 153 to 154 °C |
| COCCO[C@@H]1c2ccn3c(Cl)c(C)nc3c2N[C@H](c2ccccc2)[C@H]1O [Example 14, (7R,8R,9R)-3-Chloro-8-hydroxy-7-(2-methoxyethoxy)-2-methyl-9-phenyl-7,8,9,10-tetrahydroimidazo[1,2-h][1,7]naphthyridine] | 123 to 126 °C |
| COCCO[C@@H]1c2ccn3c(CO)c(C)nc3c2N[C@H](c2ccccc2)[C@H]1O [Example 22, (7R,8R,9R)-3-Hydroxymethyl-8-hydroxy-7-(2-methoxyethoxy)-2-methyl-9-phenyl-7,8,9,10-tetrahydroimidazo[1,2-h][1,7]naphthyridine] | 180 to 183 °C |
| COCCO[C@@H]1c2ccn3c(-c4ccccc4)c(C)nc3c2N[C@H](c2ccccc2)[C@H]1O [Example 25, (7R,8R,9R)-3,9-Diphenyl-8-hydroxy-7-(2-methoxyethoxy)-2-methyl-7,8,9,10-tetrahydroimidazo[1,2-h][1,7]naphthyridine] | 190 to 192 °C |
| COCc1nc2c3c(ccn2c1C)C(=O)[C@H](O)[C@@H](c1ccccc1)N3 [Example 26, (8R,9R)-8-Hydroxy-2-methoxymethyl-3-methyl-9-phenyl-7,8,9,10-tetrahydroimidazo[1,2-h][1,7]naphthyridin-7-one] | 168 to 173 °C |
| COCc1nc2c3c(ccn2c1C)[C@@H](O)[C@H](O)[C@@H](c1ccccc1)N3 [Example 27, (7R,8R,9R)-7,8-Dihydroxy-2-methoxymethyl-3-methyl-9-phenyl-7,8,9,10-tetrahydroimidazo[1,2-h][1,7]naphthyridine] | 102 to 104 °C |
| COCCO[C@H]1c2ccn3c(C)c(COC)nc3c2N[C@H](c2ccccc2)[C@H]1O [Example 28a, (7S,8R,9R)-8-hydroxy-7-(2-methoxyethoxy)-2-methoxymethyl-3-methyl-9-phenyl-7,8,9,10-tetrahydroimidazo[1,2-h][1,7]naphthyridine] | 63 to 65 °C |

Tested on: acid secretion stimulated by pentagastrin of the perfused rat stomach
Assay: Testing of the secretion-inhibiting action on the perfused rat stomach
Conditions: dose 3 μmol/kg i.d., anesthetized CD rats, perfused stomach in vivo
Method: The abdomen of anesthetized rats (CD rats, female, 200-250 g; 1.5 g/kg i.m. urethane) was opened after tracheotomy by means of a median upper abdominal incision and a PVC catheter was fixed transorally in the esophagus and a further catheter via the pylorus such that the ends of the tubing just projected into the gastric lumen. The catheter leading from the pylorus led outwards through a side opening in the right abdominal wall.
After thorough rinsing (about 50-100 ml), warm physiological NaCl solution at 37° C. was continuously passed through the stomach (0.5 ml/min, pH 6.8-6.9; Braun-Unita I). The pH (pH meter 632, glass electrode EA 147; φ=5 mm, Metrohm), and, by titration with a freshly prepared 0.01 N NaOH solution to pH 7 (Dosimat 665 Metrohm), the secreted HCl were determined in the effluent in each case collected at an interval of 15 minutes.
The gastric secretion was stimulated by continuous perfusion of 1 μg/kg (=1.65 ml/h) of i.v. pentagastrin (left femoral vein) about 30 min after the end of the operation (i.e. alter determination of 2 preliminary fractions). The substances to be tested were administered intraduodenally in 2,5 ml/kg of liquid volume 60 min after the start of the pentagastrin continuous infusion.
The body temperature of the animals was kept at a constant 37.8-38° C. by infrared irradiation and heat pads (automatic, stepless control by means of rectal temperature sensors).

| Structure (SMILES) | Inhibition of acid secretion (%) |
| --- | --- |
| COCCOCCO[C@@H]1c2ccn3c(C)c(C)nc3c2N[C@H](c2ccccc2)[C@H]1O [Example 8, (7R,8R,9R)-8-Hydroxy-7-[2-(2-methoxyethoxy)ethoxy]-2,3-dimethyl-9-phenyl-7,8,9,10-tetrahydroimidazo[1,2-h][1,7]naphthyridine] | 100 |
| COCCOCCO[C@H]1c2ccn3c(C)c(C)nc3c2N[C@H](c2ccccc2)[C@H]1O [Example 9, (7S,8R,9R)-8-Hydroxy-7-[2-(2-methoxyethoxy)ethoxy]2,3-dimethyl-9-phenyl-7,8,9,10-tetrahydroimidazo[1,2-h][1,7]naphthyridine] | 100 |
| Cc1cn2ccc3c(c2n1)N[C@H](c1ccccc1)[C@@H](O)[C@@H]3O [Example 11, (7R,8R,9R)-7,8-Dihydroxy-2-methyl-9-phenyl-7,8,9,10-tetrahydroimidazo[1,2-h][1,7]naphthyridine] | 100 |
| COCCO[C@H]1c2ccn3cc(C)nc3c2N[C@H](c2ccccc2)[C@H]1O [Example 12a, (7S,8R,9R)-8-hydroxy-2-methyl-7-(2-methoxyethoxy)-9-phenyl-7,8,9,10-tetrahydroimidazo[1,2-h][1,7]naphthyridine] | 100 |
| COCCO[C@@H]1c2ccn3cc(C)nc3c2N[C@H](c2ccccc2)[C@H]1O [Example 12b, (7R,8R,9R)-8-hydroxy-2-methyl-7-(2-methoxyethoxy)-9-phenyl-7,8,9,10-tetrahydroimidazo[1,2-h][1,7]-naphthyridine] | 100 |
| COCCO[C@@H]1c2ccn3c(Br)c(C)nc3c2N[C@H](c2ccccc2)[C@H]1O [Example 13, (7R,8R,9R)-3-Bromo-8-hydroxy-7-(2-methoxyethoxy)-2-methyl-9-phenyl-7,8,9,10-tetrahydroimidazo[1,2-h][1,7]naphthyridine] | 100 |
| COCCO[C@@H]1c2ccn3c(Cl)c(C)nc3c2N[C@H](c2ccccc2)[C@H]1O [Example 14, (7R,8R,9R)-3-Chloro-8-hydroxy-7-(2-methoxyethoxy)-2-methyl-9-phenyl-7,8,9,10-tetrahydroimidazo[1,2-h][1,7]naphthyridine] | 100 |
| COCCO[C@@H]1c2ccn3c(Cl)c(C)nc3c2O[C@H](c2ccccc2)[C@@H]1O [Example 16, (7R,8R,9R)-3-Chloro-8-hydroxy-7-(2-methoxyethoxy)-2-methyl-9-phenyl-7H-8,9-dihydro-pyrano[2,3-c]imidazo[1,2-a]pyridine] | 100 |
| COCCO[C@@H]1c2ccn3cc(C)nc3c2O[C@H](c2ccccc2)[C@@H]1O [Example 17, (7R,8R,9R)-8-Hydroxy-7-(2-methoxyethoxy)-2-methyl-9-phenyl-7H-8,9-dihydro-pyrano[2,3-c]imidazo[1,2-a]pyridine] | 100 |
| Cc1cn2ccc3c(c2n1)O[C@H](c1ccccc1)[C@H](O)[C@@H]3O [Example 18, (7R,8R,9R)-7,8-Dihydroxy-2-methyl-9-phenyl-7H-8,9-dihydropyrano[2,3-c]imidazo[1,2-a]pyridine] | 100 |
| CO[C@@H]1c2ccn3cc(C)nc3c2N[C@H](c2ccccc2)[C@H]1O [Example 20, (7R,8R,9R)-8-Hydroxy-7-methoxy-2-methyl-9-phenyl-7,8,9,10-tetrahydroimidazo[1,2-h][1,7]naphthyridine] | 100 |
| CO[C@H]1c2ccn3cc(C)nc3c2N[C@H](c2ccccc2)[C@H]1O [Example 21, (7S,8R,9R)-8-Hydroxy-7-methoxy-2-methyl-9-phenyl-7,8,9,10-tetrahydroimidazo[1,2-h][1,7]naphthyridine] | 100 |
| COCCO[C@@H]1c2ccn3c(CO)c(C)nc3c2N[C@H](c2ccccc2)[C@H]1O [Example 22, (7R,8R,9R)-3-Hydroxymethyl-8-hydroxy-7-(2-methoxyethoxy)-2-methyl-9-phenyl-7,8,9,10-tetrahydroimidazo[1,2-h][1,7]naphthyridine] | 100 |
